Results on 10 compounds are retold here after US7728012B2, “Carboxamide compounds and their use as calpain inhibitors” (Abbott GmbH & Co. KG, priority 2006, dated 2010).

Holding throughout (type): biochemical
Experiment [1] addresses T1, cathepsin L isolated from human liver (Homo sapiens, UniProt P07711).
T1 construct: cathepsin L—isolated from human liver; purchased Calbiochem 219402; host or cells: human liver (tissue isolate)
The experiment in a line: Cathepsin L kinetic fluorescence enzyme inhibition assay. The settings on record: selectivity ratio versus calpain I. The method, boiled down: (§1)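 Inhibition is measured at room temperature in cysteine-containing MES buffer, pH 6.0, by continuous fluorescence at 460 nm. Cathepsin S (0.5 nM) uses 20 μM Z-Val-Val-Arg-AMC; L (1 nM) and B (0.25 nM) use Z-Phe-Arg-AMC at 2 and 100 μM respectively.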

Experiment [2] deals with T2, cathepsin B isolated from human liver (Homo sapiens, UniProt P07858).
T2 construct: cathepsin B—isolated from human liver; purchased Calbiochem 219362; host or cells: human liver (tissue isolate)
The experiment in a line: Cathepsin B kinetic fluorescence enzyme inhibition assay. The note with it: selectivity ratio versus calpain I. The method, boiled down:
as §1

For experiment [3], the target named is T3, calpain-I isolated from human erythrocytes (Homo sapiens, UniProt P07384).
T3 construct: calpain-I—isolated from human erythrocytes; purchased Calbiochem 208713; host or cells: human erythrocytes (tissue isolate)
T3 sequence (P07384 1-714): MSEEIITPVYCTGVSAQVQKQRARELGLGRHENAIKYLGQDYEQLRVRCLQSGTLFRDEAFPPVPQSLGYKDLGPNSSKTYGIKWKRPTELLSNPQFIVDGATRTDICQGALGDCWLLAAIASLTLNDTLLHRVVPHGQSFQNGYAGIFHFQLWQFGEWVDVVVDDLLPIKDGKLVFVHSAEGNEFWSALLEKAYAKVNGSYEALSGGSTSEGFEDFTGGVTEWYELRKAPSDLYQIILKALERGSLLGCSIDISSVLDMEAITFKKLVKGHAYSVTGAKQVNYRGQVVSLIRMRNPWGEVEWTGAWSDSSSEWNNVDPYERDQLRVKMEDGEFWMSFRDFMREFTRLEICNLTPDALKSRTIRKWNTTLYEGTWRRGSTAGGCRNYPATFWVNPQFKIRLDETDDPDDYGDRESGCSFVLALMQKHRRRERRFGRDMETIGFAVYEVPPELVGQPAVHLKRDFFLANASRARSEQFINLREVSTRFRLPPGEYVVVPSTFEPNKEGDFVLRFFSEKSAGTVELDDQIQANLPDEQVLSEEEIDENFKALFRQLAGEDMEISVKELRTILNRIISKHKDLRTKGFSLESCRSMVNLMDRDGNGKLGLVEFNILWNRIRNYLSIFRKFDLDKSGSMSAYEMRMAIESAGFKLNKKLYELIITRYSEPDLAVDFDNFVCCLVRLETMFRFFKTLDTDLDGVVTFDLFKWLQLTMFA
T3 sequence (P04632 1-268 partner): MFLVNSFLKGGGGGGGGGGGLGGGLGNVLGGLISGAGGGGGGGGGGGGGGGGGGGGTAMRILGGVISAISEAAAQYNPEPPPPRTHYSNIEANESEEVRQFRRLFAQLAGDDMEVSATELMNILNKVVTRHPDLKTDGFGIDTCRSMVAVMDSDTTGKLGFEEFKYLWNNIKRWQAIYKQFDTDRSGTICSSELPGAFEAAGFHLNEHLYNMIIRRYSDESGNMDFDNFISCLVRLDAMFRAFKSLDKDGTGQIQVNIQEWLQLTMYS
Kind of experiment: Calpain I kinetic fluorescence enzyme inhibition assay. The note with it: apparent Ki from IC50 by Cheng-Prussoff; average of 2 to 4 dose-effect plots.

For experiment [4], the target named is T4, cathepsin K activated from recombinant human procathepsin K (Homo sapiens, UniProt P43235).
T4 construct: purchased Calbiochem 342001; host or cells: E. coli
T4 sequence (P43235 115-329): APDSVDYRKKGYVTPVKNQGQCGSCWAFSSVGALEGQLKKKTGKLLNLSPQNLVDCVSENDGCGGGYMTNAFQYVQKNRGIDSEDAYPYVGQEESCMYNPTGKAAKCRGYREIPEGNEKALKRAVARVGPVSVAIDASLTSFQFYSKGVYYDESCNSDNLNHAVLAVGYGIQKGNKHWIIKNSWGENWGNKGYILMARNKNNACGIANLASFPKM
Kind of experiment: Cathepsin K kinetic fluorescence enzyme inhibition assay. The settings on record: selectivity ratio versus calpain I.

The target of experiment [5] is T5, recombinant human cathepsin S (Homo sapiens, UniProt P25774).
T5 construct: purchased Calbiochem 219343; host or cells: E. coli
The experiment in a line: Cathepsin S kinetic fluorescence enzyme inhibition assay. The note with it: selectivity ratio versus calpain I. The essentials:
as §1

T5 sequence (P25774 115-331): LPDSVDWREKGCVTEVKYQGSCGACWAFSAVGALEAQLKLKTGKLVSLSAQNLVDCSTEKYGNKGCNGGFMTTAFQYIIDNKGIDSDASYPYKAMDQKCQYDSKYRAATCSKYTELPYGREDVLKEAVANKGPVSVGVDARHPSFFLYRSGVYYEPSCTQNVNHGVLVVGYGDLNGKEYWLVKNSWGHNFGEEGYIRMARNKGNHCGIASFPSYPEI
T1 sequence (P07711 114-333): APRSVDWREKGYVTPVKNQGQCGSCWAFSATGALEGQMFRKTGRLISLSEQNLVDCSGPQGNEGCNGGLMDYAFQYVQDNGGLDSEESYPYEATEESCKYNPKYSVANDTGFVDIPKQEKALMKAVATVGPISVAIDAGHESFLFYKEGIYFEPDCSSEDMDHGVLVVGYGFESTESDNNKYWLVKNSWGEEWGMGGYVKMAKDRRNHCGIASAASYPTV

Regarding `NC(=O)C(=O)C(Cc1ccccc1)NC(=O)c1cccnc1-n1ccc(-c2ccccc2OC(F)F)n1` (centres unmarked) [Example 166, N-[3-Amino-2,3-dioxo-1-(phenylmethyl)propyl]-2-(3-{2-[(difluoromethyl)oxy]phenyl}-1H-pyrazol-1-yl)pyridine-3-carboxamide], the “Sel cat. L (Ki(cathepsin L)/Ki(calpain) ratio)” value in experiment [1] was “++ (Ki(cathepsin L)/Ki(calpain) ratio of ≧50)”. For the same compound, the “Sel cat. B (Ki(cathepsin B)/Ki(calpain) ratio)” value in experiment [2] was “+ (10≦Ki(cathepsin B)/Ki(calpain)<30)”. Also, the Ki in experiment [3] was not above 40 nM. Besides, the “Sel cat. K (Ki(cathepsin K)/Ki(calpain) ratio)” value in experiment [4] is “++ (Ki(cathepsin K)/Ki(calpain) ratio of ≧30)”. In addition, the “Sel cat. S (Ki(cathepsin S)/Ki(calpain) ratio)” value in experiment [5] is reported as “++ (Ki(cathepsin S)/Ki(calpain) ratio of ≧100)”.

As to `NC(=O)C(=O)C(Cc1cccc(F)c1)NC(=O)c1cccnc1-n1ccc(-c2ccccc2OC(F)(F)F)n1` (centres unmarked) [Example 162, N-{3-Amino-1-[(3-fluorophenyl)methyl]-2,3-dioxopropyl}-2-(3-{2-[(trifluoromethyl)oxy]phenyl}-1H-pyrazol-1-yl)pyridine-3-carboxamide], in experiment [1], the “Sel cat. L (Ki(cathepsin L)/Ki(calpain) ratio)” value was “++ (Ki(cathepsin L)/Ki(calpain) ratio of ≧50)”. Also, the “Sel cat. B (Ki(cathepsin B)/Ki(calpain) ratio)” value in experiment [2] was “++ (Ki(cathepsin B)/Ki(calpain) ratio of ≧30)”. For the same compound, the Ki in experiment [3] was 40 to 100 nM. For the same compound, the “Sel cat. K (Ki(cathepsin K)/Ki(calpain) ratio)” value in experiment [4] was “++ (Ki(cathepsin K)/Ki(calpain) ratio of ≧30)”. In experiment [5], the “Sel cat. S (Ki(cathepsin S)/Ki(calpain) ratio)” value is on record as “++ (Ki(cathepsin S)/Ki(calpain) ratio of ≧100)”.

Regarding `COc1ccc(CC(NC(=O)c2cccnc2-n2ccc(-c3cccc(Cl)c3Cl)n2)C(=O)C(N)=O)cc1` (centres unmarked) [Example 153, N-(3-Aamino-1-{[4-(methyloxy)phenyl]methyl}-2,3-dioxopropyl)-2-[3-(2,3-dichlorophenyl)-1H-pyrazol-1-yl]pyridine-3-carboxamide], in experiment [1], the “Sel cat. L (Ki(cathepsin L)/Ki(calpain) ratio)” value was “++ (Ki(cathepsin L)/Ki(calpain) ratio of ≧50)”. Also, the “Sel cat. B (Ki(cathepsin B)/Ki(calpain) ratio)” value in experiment [2] was “++ (Ki(cathepsin B)/Ki(calpain) ratio of ≧30)”. Also, the Ki in experiment [3] was not above 40 nM. The “Sel cat. K (Ki(cathepsin K)/Ki(calpain) ratio)” value in experiment [4] is “++ (Ki(cathepsin K)/Ki(calpain) ratio of ≧30)”. Further, the “Sel cat. S (Ki(cathepsin S)/Ki(calpain) ratio)” value in experiment [5] is reported as “++ (Ki(cathepsin S)/Ki(calpain) ratio of ≧100)”.

`NC(=O)C(=O)C(Cc1ccccc1)NC(=O)c1cccnc1-n1cc2c(n1)-c1ccccc1SC2` (centres unmarked) [Example 173, N-[3-Amino-2,3-dioxo-1-(phenylmethyl)propyl]-2-thiochromeno[4,3-c]pyrazol-2(4H)-ylpyridine-3-carboxamide]: the “Sel cat. L (Ki(cathepsin L)/Ki(calpain) ratio)” value in experiment [1] is listed as “++ (Ki(cathepsin L)/Ki(calpain) ratio of ≧50)”. Moreover, the “Sel cat. B (Ki(cathepsin B)/Ki(calpain) ratio)” value in experiment [2] is “+ (10≦Ki(cathepsin B)/Ki(calpain)<30)”. For the same compound, the Ki in experiment [3] is not above 40 nM. The “Sel cat. K (Ki(cathepsin K)/Ki(calpain) ratio)” value in experiment [4] is listed as “+ (10≦Ki(cathepsin K)/Ki(calpain)<30)”. Also, the “Sel cat. S (Ki(cathepsin S)/Ki(calpain) ratio)” value in experiment [5] is listed as “++ (Ki(cathepsin S)/Ki(calpain) ratio of ≧100)”.

Regarding `COc1ccc(CC(NC(=O)c2cccnc2-n2ccc(-c3cccc4ccccc34)n2)C(=O)C(N)=O)cc1` (centres unmarked) [Example 135, N-(3-Amino-1-{[4-(methyloxy)phenyl]methyl}-2,3-dioxopropyl)-2-(3-naphthalen-1-yl-1H-pyrazol-1-yl)pyridine-3-carboxamide], in experiment [1], the “Sel cat. L (Ki(cathepsin L)/Ki(calpain) ratio)” value is “++ (Ki(cathepsin L)/Ki(calpain) ratio of ≧50)”. The “Sel cat. B (Ki(cathepsin B)/Ki(calpain) ratio)” value in experiment [2] was “++ (Ki(cathepsin B)/Ki(calpain) ratio of ≧30)”. Besides, the Ki in experiment [3] is not above 40 nM. In experiment [4], the “Sel cat. K (Ki(cathepsin K)/Ki(calpain) ratio)” value was “++ (Ki(cathepsin K)/Ki(calpain) ratio of ≧30)”. Besides, in experiment [5], the “Sel cat. S (Ki(cathepsin S)/Ki(calpain) ratio)” value is listed as “++ (Ki(cathepsin S)/Ki(calpain) ratio of ≧100)”.

Consider `COc1cc(F)ccc1-c1ccn(-c2ncccc2C(=O)NC(Cc2ccccc2)C(=O)C(N)=O)n1` (centres unmarked) [Example 125, N-[3-Amino-2,3-dioxo-1-(phenylmethyl)propyl]-2-{3-[4-fluoro-2-(methyloxy)phenyl]-1H-pyrazol-1-yl}pyridine-3-carboxamide], for which the “Sel cat. L (Ki(cathepsin L)/Ki(calpain) ratio)” value in experiment [1] was “++ (Ki(cathepsin L)/Ki(calpain) ratio of ≧50)”. Also, in experiment [2], the “Sel cat. B (Ki(cathepsin B)/Ki(calpain) ratio)” value is given as “++ (Ki(cathepsin B)/Ki(calpain) ratio of ≧30)”. Besides, the Ki in experiment [3] was not above 40 nM. Further, the “Sel cat. K (Ki(cathepsin K)/Ki(calpain) ratio)” value in experiment [4] is on record as “++ (Ki(cathepsin K)/Ki(calpain) ratio of ≧30)”. Further, in experiment [5], the “Sel cat. S (Ki(cathepsin S)/Ki(calpain) ratio)” value was “++ (Ki(cathepsin S)/Ki(calpain) ratio of ≧100)”.

As to `NC(=O)C(=O)C(Cc1ccc(F)cc1)NC(=O)c1cccnc1-n1ccc(-c2ccccc2)n1` (centres unmarked) [Example 123, N-{3-Amino-1-[(4-fluorophenyl)methyl]-2,3-dioxopropyl}-2-(3-phenyl-1H-pyrazol-1-yl)pyridine-3-carboxamide], in experiment [1], the “Sel cat. L (Ki(cathepsin L)/Ki(calpain) ratio)” value is “++ (Ki(cathepsin L)/Ki(calpain) ratio of ≧50)”. In experiment [2], the “Sel cat. B (Ki(cathepsin B)/Ki(calpain) ratio)” value is “++ (Ki(cathepsin B)/Ki(calpain) ratio of ≧30)”. The Ki in experiment [3] is not above 40 nM. Also, in experiment [4], the “Sel cat. K (Ki(cathepsin K)/Ki(calpain) ratio)” value is listed as “++ (Ki(cathepsin K)/Ki(calpain) ratio of ≧30)”. Besides, the “Sel cat. S (Ki(cathepsin S)/Ki(calpain) ratio)” value in experiment [5] was “++ (Ki(cathepsin S)/Ki(calpain) ratio of ≧100)”.

“N-[3-Amino-2,3-dioxo-1-(phenylmethyl)propyl]-2-[3-(3,5-dichlorophenyl)-1H-pyrazol-1-yl]pyridine-3-carboxamide [Example 89]”: in experiment [1], the “Sel cat. L (Ki(cathepsin L)/Ki(calpain) ratio)” value is recorded as “++ (Ki(cathepsin L)/Ki(calpain) ratio of ≧50)”. For the same compound, the “Sel cat. B (Ki(cathepsin B)/Ki(calpain) ratio)” value in experiment [2] is reported as “+ (10≦Ki(cathepsin B)/Ki(calpain)<30)”. Further, in experiment [3], the Ki is 40 to 100 nM. The “Sel cat. K (Ki(cathepsin K)/Ki(calpain) ratio)” value in experiment [4] is recorded as “+ (10≦Ki(cathepsin K)/Ki(calpain)<30)”. Besides, the “Sel cat. S (Ki(cathepsin S)/Ki(calpain) ratio)” value in experiment [5] is “++ (Ki(cathepsin S)/Ki(calpain) ratio of ≧100)”.

As to `NC(=O)C(=O)C(Cc1ccc(OC(F)(F)F)cc1)NC(=O)c1cccnc1-n1ccc(-c2ccc(F)cc2)n1` (centres unmarked) [Example 132, N-[3-Amino-2,3-dioxo-1-({4-[(trifluoromethyl)oxy]phenyl}methyl)propyl]-2-[3-(4-fluorophenyl)-1H-pyrazol-1-yl]pyridine-3-carboxamide], the “Sel cat. L (Ki(cathepsin L)/Ki(calpain) ratio)” value in experiment [1] was “++ (Ki(cathepsin L)/Ki(calpain) ratio of ≧50)”. In addition, the “Sel cat. B (Ki(cathepsin B)/Ki(calpain) ratio)” value in experiment [2] is reported as “+ (10≦Ki(cathepsin B)/Ki(calpain)<30)”. In addition, the Ki in experiment [3] lay within 40 to 100 nM. The “Sel cat. K (Ki(cathepsin K)/Ki(calpain) ratio)” value in experiment [4] is “++ (Ki(cathepsin K)/Ki(calpain) ratio of ≧30)”. The “Sel cat. S (Ki(cathepsin S)/Ki(calpain) ratio)” value in experiment [5] is “++ (Ki(cathepsin S)/Ki(calpain) ratio of ≧100)”.

As to `NC(=O)C(=O)C(Cc1ccccc1)NC(=O)c1cccnc1-n1ccc(-c2cccc(OCc3ccccc3)c2)n1` (centres unmarked) [Example 96, N-[3-Amino-2,3-dioxo-1-(phenylmethyl)propyl]-2-(3-{3-[(phenylmethyl)oxy]phenyl}-1H-pyrazol-1-yl)pyridine-3-carboxamide], the “Sel cat. L (Ki(cathepsin L)/Ki(calpain) ratio)” value in experiment [1] is “++ (Ki(cathepsin L)/Ki(calpain) ratio of ≧50)”. Further, the “Sel cat. B (Ki(cathepsin B)/Ki(calpain) ratio)” value in experiment [2] was “++ (Ki(cathepsin B)/Ki(calpain) ratio of ≧30)”. Further, the Ki in experiment [3] was not above 40 nM. For the same compound, the “Sel cat. K (Ki(cathepsin K)/Ki(calpain) ratio)” value in experiment [4] is “++ (Ki(cathepsin K)/Ki(calpain) ratio of ≧30)”. The “Sel cat. S (Ki(cathepsin S)/Ki(calpain) ratio)” value in experiment [5] is “++ (Ki(cathepsin S)/Ki(calpain) ratio of ≧100)”.
